In ChEMBL document CHEMBL2021782, “Drug-to-genome-to-drug, step 2: reversing selectivity in a series of antiplasmodial compounds” (J Med Chem, 2012):

Tests used:
[1] = tested on: Plasmodium falciparum; experiment: Antiplasmodial activity against chloroquine-sensitive Plasmodium falciparum GHA infected in human erythrocytes after 72 hrs using malstat staining by spectrophotometry; format: functional, organism-based
[2] = Cytotoxicity against human MRC5 SV2 cells after 72 hrs using resazurin by fluorimetry; format: cell-based
[3] = Selectivity ratio of CC50 for human MRC5 SV2 cells to IC50 for chloroquine-sensitive Plasmodium falciparum GHA strain; format: ADME, cell-based; details: read-out: Ratio CC50/IC50
[4] = biological target: cGMP-specific 3',5'-cyclic phosphodiesterase (Bos taurus, UniProt Q28156); experiment: Inhibition of bovine PDE5 after 24 hrs by time-resolved fluorescence resonance energy transfer assay
[5] = Selectivity index, ratio of IC50 for chloroquine-sensitive Plasmodium falciparum GHA to IC50 for bovine PDE5
[6] = tested on: Plasmodium falciparum; experiment: Antiplasmodial activity against chloroquine-sensitive Plasmodium falciparum K1 infected in human erythrocytes after 72 hrs using malstat staining by spectrophotometry; format: functional, organism-based; details: K1, 72 h
[7] = Selectivity index, ratio of IC50 for chloroquine-sensitive Plasmodium falciparum K1 to IC50 for bovine PDE5
[8] = biological target: Dual specificity calcium/calmodulin-dependent 3',5'-cyclic nucleotide phosphodiesterase 1B (Homo sapiens) (UniProt Q01064); experiment: Inhibition of human recombinant PDE1B expressed in Sf9 cells at 10 uM after 30 mins by HTRF assay
Chain of Dual specificity calcium/calmodulin-dependent 3',5'-cyclic nucleotide phosphodiesterase 1B (Homo sapiens) (Q01064 whole entry): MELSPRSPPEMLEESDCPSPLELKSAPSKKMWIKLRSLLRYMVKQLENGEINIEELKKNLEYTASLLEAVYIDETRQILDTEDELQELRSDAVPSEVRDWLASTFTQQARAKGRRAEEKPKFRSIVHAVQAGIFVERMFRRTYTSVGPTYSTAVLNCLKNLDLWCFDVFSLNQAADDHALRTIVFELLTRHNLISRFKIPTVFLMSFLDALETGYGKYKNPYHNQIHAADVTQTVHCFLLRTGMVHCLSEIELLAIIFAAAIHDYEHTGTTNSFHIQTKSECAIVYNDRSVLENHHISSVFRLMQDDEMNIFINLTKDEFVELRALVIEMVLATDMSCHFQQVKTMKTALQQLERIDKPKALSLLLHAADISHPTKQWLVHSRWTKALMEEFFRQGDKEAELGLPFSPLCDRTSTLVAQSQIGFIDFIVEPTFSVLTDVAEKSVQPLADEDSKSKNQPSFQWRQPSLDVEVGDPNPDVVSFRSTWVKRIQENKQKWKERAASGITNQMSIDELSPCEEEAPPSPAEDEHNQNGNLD

[9] = biological target: cGMP-dependent 3',5'-cyclic phosphodiesterase (Homo sapiens) (UniProt O00408); experiment: Inhibition of human recombinant PDE2A expressed in Sf9 cells at 10 uM after 30 mins by HTRF assay
Chain of cGMP-dependent 3',5'-cyclic phosphodiesterase (Homo sapiens) (O00408 whole entry): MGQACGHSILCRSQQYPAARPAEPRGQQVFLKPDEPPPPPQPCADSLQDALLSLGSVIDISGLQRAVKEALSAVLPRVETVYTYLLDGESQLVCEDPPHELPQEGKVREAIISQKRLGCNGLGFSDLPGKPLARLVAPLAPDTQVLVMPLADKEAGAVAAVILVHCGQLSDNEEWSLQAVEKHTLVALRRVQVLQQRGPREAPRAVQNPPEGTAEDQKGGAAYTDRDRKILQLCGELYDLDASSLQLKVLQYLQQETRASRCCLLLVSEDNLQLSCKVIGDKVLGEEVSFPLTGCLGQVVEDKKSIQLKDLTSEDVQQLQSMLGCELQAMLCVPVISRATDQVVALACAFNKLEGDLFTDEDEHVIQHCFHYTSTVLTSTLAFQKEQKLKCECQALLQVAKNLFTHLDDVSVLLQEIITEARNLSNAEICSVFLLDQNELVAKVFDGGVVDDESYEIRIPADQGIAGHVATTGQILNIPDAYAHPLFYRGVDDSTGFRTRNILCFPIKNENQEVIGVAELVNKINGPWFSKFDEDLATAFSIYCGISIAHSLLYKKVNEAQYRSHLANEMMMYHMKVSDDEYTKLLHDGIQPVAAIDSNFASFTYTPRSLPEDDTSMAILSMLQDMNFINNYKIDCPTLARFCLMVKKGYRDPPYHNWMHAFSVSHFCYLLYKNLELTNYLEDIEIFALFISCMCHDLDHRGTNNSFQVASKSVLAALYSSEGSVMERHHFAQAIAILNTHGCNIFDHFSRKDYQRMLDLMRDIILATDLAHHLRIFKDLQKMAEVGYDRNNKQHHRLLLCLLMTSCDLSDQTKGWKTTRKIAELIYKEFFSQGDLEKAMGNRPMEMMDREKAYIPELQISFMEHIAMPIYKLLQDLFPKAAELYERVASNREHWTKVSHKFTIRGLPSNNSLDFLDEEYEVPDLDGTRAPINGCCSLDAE

[10] = biological target: cGMP-inhibited 3',5'-cyclic phosphodiesterase 3A (Homo sapiens) (UniProt Q14432); experiment: Inhibition of human recombinant PDE3A expressed in Sf9 cells at 10 uM after 30 mins by HTRF assay
Chain of cGMP-inhibited 3',5'-cyclic phosphodiesterase 3A (Homo sapiens) (Q14432 whole entry): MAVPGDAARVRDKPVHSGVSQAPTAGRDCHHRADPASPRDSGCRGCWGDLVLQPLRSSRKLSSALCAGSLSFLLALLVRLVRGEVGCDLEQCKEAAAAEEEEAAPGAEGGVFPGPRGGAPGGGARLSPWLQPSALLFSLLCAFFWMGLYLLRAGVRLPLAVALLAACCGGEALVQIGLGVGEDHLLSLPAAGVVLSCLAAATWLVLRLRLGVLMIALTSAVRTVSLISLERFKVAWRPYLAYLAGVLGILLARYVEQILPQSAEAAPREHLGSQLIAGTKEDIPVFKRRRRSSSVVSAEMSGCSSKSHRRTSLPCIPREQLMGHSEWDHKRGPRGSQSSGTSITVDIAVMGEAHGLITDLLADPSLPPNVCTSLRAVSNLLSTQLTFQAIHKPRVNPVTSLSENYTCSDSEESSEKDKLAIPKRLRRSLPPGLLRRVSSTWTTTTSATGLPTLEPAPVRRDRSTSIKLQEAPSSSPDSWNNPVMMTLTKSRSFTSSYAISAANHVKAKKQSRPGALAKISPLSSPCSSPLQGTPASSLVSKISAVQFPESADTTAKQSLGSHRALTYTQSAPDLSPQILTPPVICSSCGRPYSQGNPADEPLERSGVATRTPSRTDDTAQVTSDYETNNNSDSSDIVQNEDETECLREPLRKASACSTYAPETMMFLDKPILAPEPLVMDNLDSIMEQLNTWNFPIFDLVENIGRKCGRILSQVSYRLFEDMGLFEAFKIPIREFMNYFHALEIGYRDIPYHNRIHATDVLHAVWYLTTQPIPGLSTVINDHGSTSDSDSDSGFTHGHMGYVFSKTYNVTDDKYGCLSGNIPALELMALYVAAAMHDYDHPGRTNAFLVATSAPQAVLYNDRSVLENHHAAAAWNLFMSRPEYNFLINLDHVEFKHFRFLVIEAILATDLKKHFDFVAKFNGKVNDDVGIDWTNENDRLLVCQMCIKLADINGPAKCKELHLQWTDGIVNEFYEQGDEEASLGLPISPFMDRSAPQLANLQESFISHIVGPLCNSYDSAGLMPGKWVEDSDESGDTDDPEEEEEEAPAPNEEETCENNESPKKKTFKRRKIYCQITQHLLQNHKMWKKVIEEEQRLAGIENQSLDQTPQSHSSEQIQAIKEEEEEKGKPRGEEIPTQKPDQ

[11] = biological target: Phosphodiesterase 4 (Homo sapiens) (UniProt P27815+Q08499+Q07343+Q08493); experiment: Inhibition of human recombinant PDE4A1A expressed in Sf9 cells at 10 uM after 30 mins by HTRF assay
[12] = species on record: Bos taurus; experiment: Inhibition of bovine PDE6 using [3H]5GMP at 10 uM after 60 mins by scintillation counting
[13] = biological target: High affinity 3',5'-cyclic-AMP phosphodiesterase 7A (Homo sapiens) (UniProt Q13946); experiment: Inhibition of human recombinant PDE7A expressed in Sf9 cells at 10 uM after 30 mins by HTRF assay
Chain of High affinity 3',5'-cyclic-AMP phosphodiesterase 7A (Homo sapiens) (Q13946 whole entry): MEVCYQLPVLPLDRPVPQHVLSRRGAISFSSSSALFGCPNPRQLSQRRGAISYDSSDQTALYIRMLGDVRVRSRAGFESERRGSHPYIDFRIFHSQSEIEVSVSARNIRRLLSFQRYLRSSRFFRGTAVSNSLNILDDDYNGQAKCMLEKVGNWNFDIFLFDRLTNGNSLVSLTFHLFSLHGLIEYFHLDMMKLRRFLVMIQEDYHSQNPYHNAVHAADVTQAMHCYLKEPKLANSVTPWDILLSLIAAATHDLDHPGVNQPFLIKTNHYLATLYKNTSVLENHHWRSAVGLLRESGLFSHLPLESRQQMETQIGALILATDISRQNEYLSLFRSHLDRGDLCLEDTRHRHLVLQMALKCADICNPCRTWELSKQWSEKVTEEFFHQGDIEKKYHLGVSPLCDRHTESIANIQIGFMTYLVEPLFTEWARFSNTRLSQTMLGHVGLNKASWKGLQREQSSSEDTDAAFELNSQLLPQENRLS

[14] = biological target: High affinity cAMP-specific and IBMX-insensitive 3',5'-cyclic phosphodiesterase 8A (Homo sapiens) (UniProt O60658); experiment: Inhibition of human recombinant PDE8A1 expressed in Sf9 cells at 10 uM after 30 mins by HTRF assay
Chain of High affinity cAMP-specific and IBMX-insensitive 3',5'-cyclic phosphodiesterase 8A (Homo sapiens) (O60658 whole entry): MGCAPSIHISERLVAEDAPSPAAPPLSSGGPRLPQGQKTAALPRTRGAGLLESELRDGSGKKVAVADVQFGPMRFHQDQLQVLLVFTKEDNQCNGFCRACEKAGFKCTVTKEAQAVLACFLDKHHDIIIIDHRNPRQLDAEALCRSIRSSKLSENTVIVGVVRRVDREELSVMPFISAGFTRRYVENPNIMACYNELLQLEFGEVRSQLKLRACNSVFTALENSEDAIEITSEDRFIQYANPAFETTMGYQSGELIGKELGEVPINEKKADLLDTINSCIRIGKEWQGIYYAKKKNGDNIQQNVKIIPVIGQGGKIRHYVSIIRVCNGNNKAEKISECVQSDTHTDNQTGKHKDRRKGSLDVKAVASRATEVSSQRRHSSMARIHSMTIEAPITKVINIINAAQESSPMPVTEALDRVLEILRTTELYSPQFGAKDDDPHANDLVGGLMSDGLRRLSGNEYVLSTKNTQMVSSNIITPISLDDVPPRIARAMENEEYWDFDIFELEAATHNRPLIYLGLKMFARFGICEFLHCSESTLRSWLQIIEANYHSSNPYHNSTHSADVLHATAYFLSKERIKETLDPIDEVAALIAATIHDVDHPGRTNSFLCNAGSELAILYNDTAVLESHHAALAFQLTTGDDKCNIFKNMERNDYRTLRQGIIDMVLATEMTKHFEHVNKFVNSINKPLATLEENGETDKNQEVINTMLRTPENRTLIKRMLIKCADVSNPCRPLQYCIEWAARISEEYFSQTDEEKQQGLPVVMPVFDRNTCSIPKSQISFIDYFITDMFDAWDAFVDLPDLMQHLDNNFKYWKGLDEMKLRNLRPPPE

[15] = biological target: cAMP and cAMP-inhibited cGMP 3',5'-cyclic phosphodiesterase 10A (Homo sapiens) (UniProt Q9Y233); experiment: Inhibition of human recombinant PDE10A1 expressed in Sf9 cells at 10 uM after 30 mins by HTRF assay
Chain of cAMP and cAMP-inhibited cGMP 3',5'-cyclic phosphodiesterase 10A (Homo sapiens) (Q9Y233 whole entry): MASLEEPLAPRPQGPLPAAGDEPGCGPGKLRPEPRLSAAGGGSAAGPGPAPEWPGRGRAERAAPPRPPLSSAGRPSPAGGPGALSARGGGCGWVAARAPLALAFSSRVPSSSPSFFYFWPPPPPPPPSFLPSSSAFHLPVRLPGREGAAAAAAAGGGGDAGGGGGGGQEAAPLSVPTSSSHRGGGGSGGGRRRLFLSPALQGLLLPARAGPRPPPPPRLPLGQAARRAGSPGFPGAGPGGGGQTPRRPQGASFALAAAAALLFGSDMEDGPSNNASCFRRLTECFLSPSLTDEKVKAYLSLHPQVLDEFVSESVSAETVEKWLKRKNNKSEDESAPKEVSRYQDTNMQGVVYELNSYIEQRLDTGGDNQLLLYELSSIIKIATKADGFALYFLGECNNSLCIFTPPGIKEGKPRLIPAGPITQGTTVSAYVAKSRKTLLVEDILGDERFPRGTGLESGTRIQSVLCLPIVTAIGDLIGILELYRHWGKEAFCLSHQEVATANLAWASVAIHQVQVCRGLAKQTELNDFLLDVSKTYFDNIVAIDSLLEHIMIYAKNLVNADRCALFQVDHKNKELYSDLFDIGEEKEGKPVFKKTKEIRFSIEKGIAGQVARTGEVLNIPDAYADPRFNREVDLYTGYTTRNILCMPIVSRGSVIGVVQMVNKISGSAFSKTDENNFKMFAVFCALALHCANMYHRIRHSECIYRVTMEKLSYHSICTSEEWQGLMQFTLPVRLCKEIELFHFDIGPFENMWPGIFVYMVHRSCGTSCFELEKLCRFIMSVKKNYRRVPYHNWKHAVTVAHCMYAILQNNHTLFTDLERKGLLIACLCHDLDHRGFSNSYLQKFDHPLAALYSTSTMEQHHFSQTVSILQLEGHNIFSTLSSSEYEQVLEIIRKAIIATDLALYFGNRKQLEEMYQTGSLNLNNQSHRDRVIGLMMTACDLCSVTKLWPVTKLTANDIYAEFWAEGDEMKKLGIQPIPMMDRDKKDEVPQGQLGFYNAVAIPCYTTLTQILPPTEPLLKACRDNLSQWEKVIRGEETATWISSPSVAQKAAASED

[16] = biological target: Dual 3',5'-cyclic-AMP and -GMP phosphodiesterase 11A (Homo sapiens) (UniProt Q9HCR9); experiment: Inhibition of human recombinant PDE11A4 expressed in Sf9 cells at 10 uM after 30 mins by HTRF assay
[17] = biological target: cGMP-specific 3',5'-cyclic phosphodiesterase (Homo sapiens) (UniProt O76074); details: 10 uM
Description: Inhibition of human PDE5 using [3H]5GMP at 10 uM after 60 mins by scintillation counting

Row | SMILES | IC50 [1] | CC50 at 72 h [2] | selectivity ratio [3] | IC50 [4] | also measured
1 | O=C1[C@H]2Cc3c([nH]c4ccccc34)[C@@H](c3ccc4c(c3)OCO4)N2C(=O)CN1[C@@H]1CCN(CCCCCO)C1 | 12 µM | 3 µM | 3 | – | –
2 | Cn1ccnc1CN1CC[C@@H](N2CC(=O)N3[C@H](c4ccc5c(c4)OCO5)c4[nH]c5ccccc5c4C[C@@H]3C2=O)C1 | 0.8 µM | 50 µM | 50 | 0.001 µM | Ratio IC50 [5]: 0.003
3 | COc1ccc([C@@H]2c3[nH]c4ccccc4c3C[C@@H]3C(=O)N(C)CC(=O)N23)cc1OC | > 64 µM | > 64 µM | > 64 | > 10 µM | –
4 | COc1cc([C@@H]2c3[nH]c4ccccc4c3C[C@@H]3C(=O)N([C@@H]4CCN(Cc5ccccc5)C4)CC(=O)N23)ccc1O | 0.52 µM | 23 µM | 44 | > 1 µM | –
5 | COc1ccc([C@@H]2c3[nH]c4ccccc4c3C[C@@H]3C(=O)N([C@@H]4CCN(Cc5ccc6c(c5)OCO6)C4)CC(=O)N23)cc1OC | – | 25 µM | 25 | > 10 µM | IC50 [6]: 0.95 µM; Ratio IC50 [7]: > 10
6 | O=C1[C@H]2Cc3c([nH]c4ccccc34)[C@@H](c3ccc(OC(F)F)cc3)N2C(=O)CN1[C@@H]1CCN(Cc2ccccc2)C1 | 11 µM | > 64 µM | > 6 | – | –
7 | O=C1[C@H]2Cc3c([nH]c4ccccc34)[C@@H](c3ccc4c(c3)OCO4)N2C(=O)CN1[C@@H]1CCN(CC2CCCC2)C1 | 0.25 µM | 22 µM | 22 | – | –
8 | O=C1[C@H]2Cc3c([nH]c4ccccc34)[C@@H](c3ccc4c(c3)OCO4)N2C(=O)CN1[C@@H]1CCN(CCc2ccccc2)C1 | 5.3 µM | 1 µM | 1 | – | –
9 | COc1ccc([C@@H]2c3[nH]c4ccccc4c3C[C@@H]3C(=O)N([C@@H]4CCN(Cc5ccccc5)C4)CC(=O)N23)cc1O | 0.61 µM | 22 µM | 36 | 0.056 µM | –
10 | O=C1[C@H]2Cc3c([nH]c4ccccc34)[C@@H](c3ccc4c(c3)OCO4)N2C(=O)CN1[C@@H]1CCN(CC2CCCCC2)C1 | 0.9 µM | 7 µM | 7 | – | –
11 | O=C1[C@H]2Cc3c([nH]c4ccccc34)[C@@H](c3ccc4nsnc4c3)N2C(=O)CN1[C@@H]1CCN(Cc2ccccc2)C1 | 0.6 µM | 30 µM | 50 | 0.028 µM | –
12 | CCCCN1CC[C@@H](N2CC(=O)N3[C@H](c4ccc5c(c4)OCO5)c4[nH]c5ccccc5c4C[C@@H]3C2=O)C1 | 12 µM | < 1 µM | < 1 | – | –
13 | O=C1[C@H]2Cc3c([nH]c4ccccc34)[C@@H](c3ccc4c(c3)OCO4)N2C(=O)CN1[C@@H]1CCN(Cc2ccccn2)C1 | 4 µM | 13 µM | 13 | 0.002 µM | –
14 | O=C1[C@H]2Cc3c([nH]c4ccccc34)[C@@H](c3ccc4c(c3)OC(F)(F)O4)N2C(=O)CN1[C@@H]1CCN(Cc2ccccc2)C1 | 11 µM | 8 µM | 1 | – | –
15 | O=C1[C@H]2Cc3c([nH]c4ccccc34)[C@@H](c3ccc4c(c3)OCO4)N2C(=O)CN1[C@@H]1CCN(Cc2ccccc2)C1 | – | 10 µM | 20 | 0.005 µM | Ratio IC50 [5]: 0.014
16 | CN(C)C(=O)CN1CC[C@@H](N2CC(=O)N3[C@H](c4ccc5c(c4)OCO5)c4[nH]c5ccccc5c4C[C@@H]3C2=O)C1 | 2 µM | > 32 µM | > 32 | 0.003 µM | –
17 | COc1ccc([C@@H]2c3[nH]c4ccccc4c3C[C@@H]3C(=O)N([C@@H]4CCN(Cc5nccn5C)C4)CC(=O)N23)cc1OC | – | 37 µM | 37 | 5.6 µM | IC50 [6]: 1.6 µM; Ratio IC50 [7]: 3
18 | O=C1[C@H]2Cc3c([nH]c4ccccc34)[C@@H](c3ccc4nnnn4c3)N2C(=O)CN1[C@@H]1CCN(Cc2ccccc2)C1 | 7 µM | 21 µM | 3 | – | –
19 | COc1ccc(CN2CC[C@@H](N3CC(=O)N4[C@H](c5ccc6c(c5)OCO6)c5[nH]c6ccccc6c5C[C@@H]4C3=O)C2)cc1 | 10 µM | < 1 µM | < 1 | – | –
20 | O=C1[C@H]2Cc3c([nH]c4ccccc34)[C@@H](c3ccc4nonc4c3)N2C(=O)CN1[C@@H]1CCN(Cc2ccccc2)C1 | 6 µM | > 64 µM | > 10 | – | –
21 | CN1CC(=O)N2[C@H](c3ccc4c(c3)OCO4)c3[nH]c4ccccc4c3C[C@@H]2C1=O | > 64 µM | > 64 µM | – | – | –
22 | COc1ccc([C@@H]2c3[nH]c4ccccc4c3C[C@@H]3C(=O)N([C@@H]4CCN(CCNC(=O)OC(C)(C)C)C4)CC(=O)N23)cc1OC | – | 10 µM | 10 | > 10 µM | IC50 [6]: 0.74 µM; Ratio IC50 [7]: > 13
23 | O=C1[C@H]2Cc3c([nH]c4ccccc34)[C@@H](c3ccc4c(c3)OCO4)N2C(=O)CN1C1CCN(Cc2ccccc2)CC1 | – | 7 µM | – | – | –
24 | O=C1[C@H]2Cc3c([nH]c4ccccc34)[C@@H](c3ccc(Cl)nc3)N2C(=O)CN1[C@@H]1CCN(Cc2ccccc2)C1 | 11 µM | 14 µM | 1 | – | –
25 | O=C1[C@H]2Cc3c([nH]c4ccccc34)[C@@H](c3ccc4c(c3)OCO4)N2C(=O)CN1[C@@H]1CCN(Cc2ccc3c(c2)OCO3)C1 | 0.53 µM | 78 µM | 78 | 0.007 µM | Ratio IC50 [5]: 0.013
26 | O=C1[C@H]2Cc3c([nH]c4ccccc34)[C@@H](c3ccc4c(c3)OCO4)N2C(=O)CN1[C@@H]1CCN(CCOc2ccccc2)C1 | 0.7 µM | 11 µM | 11 | – | –
27 | CN(C)c1ccc(CN2CC[C@@H](N3CC(=O)N4[C@H](c5ccc6c(c5)OCO6)c5[nH]c6ccccc6c5C[C@@H]4C3=O)C2)cc1 | 7 µM | < 1 µM | < 1 | – | –
28 | CC(C)(C)OC(=O)NCCN1CC[C@@H](N2CC(=O)N3[C@H](c4ccc5c(c4)OCO5)c4[nH]c5ccccc5c4C[C@@H]3C2=O)C1 | 0.22 µM | 154 µM | 154 | 0.001 µM | Ratio IC50 [5]: 0.018
29 | O=C1[C@H]2Cc3c([nH]c4ccccc34)[C@@H](c3ccc4c(c3)OCCO4)N2C(=O)CN1[C@@H]1CCN(Cc2ccccc2)C1 | 5 µM | > 64 µM | > 13 | – | –
30 | COc1ccc([C@@H]2c3[nH]c4ccccc4c3C[C@@H]3C(=O)N([C@@H]4CCN(Cc5ccccc5)C4)CC(=O)N23)cc1OC | 0.42 µM | 32 µM | 76 | 5.2 µM | Ratio IC50 [5]: 12.4; inhibition [8]: 0%; inhibition [9]: 0%; inhibition [10]: 1%; inhibition [11]: 1%; inhibition [12]: 18%; inhibition [13]: 0%; inhibition [14]: 3%; inhibition [15]: 0%; inhibition [16]: 30%; inhibition [17]: 48%
